Measured values: PMC8286840, “Identifying SARS-CoV-2 antiviral compounds by screening for small molecule inhibitors of Nsp3 papain-like protease” (Biochemical Journal, 2021)
Counter-ions that a name gives are not always drawn. Like-named read-outs stand apart in the source and are kept apart here.

Key:
[1] = target: T1, SARS-CoV-2 PLpro (nsp3 1564–1878) (Severe acute respiratory syndrome coronavirus 2, UniProt P0DTD1); assay: biochemical; parameters: FRET-quenched peptide (Pro3) cleavage by PLpro, 10 min pre-incubation, slope over 20 min, normalised to no-compound control; conditions: low concentration screen, read-out: % of control remaining
[2] = target: T1, SARS-CoV-2 PLpro (nsp3 1564–1878); assay: biochemical; parameters: FRET-quenched peptide (Pro3) cleavage by PLpro, 10 min pre-incubation, slope over 20 min, normalised to no-compound control; conditions: high concentration screen, read-out: % of control remaining

SMILES: CN(C)c1ccc(O)c2c1C[C@H]1C[C@H]3[C@H](N(C)C)C(O)=C(C(N)=O)C(=O)[C@@]3(O)C(O)=C1C2=O
- remaining activity at 1.25 µM ([1]; Well no.=3663): 102%

SMILES: CC(N)(C(=O)O)c1ccc(C(=O)O)cc1 (racemic)
- remaining activity at 3.75 µM ([2]; Well no.=880): 111%

SMILES: CC(C)NCC(O)c1ccc(O)c(O)c1 (racemic)
- remaining activity at 1.25 µM ([1]; Well no.=1107): 97.8%

SMILES: Oc1cc2c(cc1O)C(c1ccccc1)CNCC2 (racemic)
- remaining activity at 3.75 µM ([2]; Well no.=542): 98.7%

SMILES: CN(C)CCC(c1ccc(Cl)cc1)c1ccccn1 (racemic)
- remaining activity at 1.25 µM ([1]; Well no.=124): 92.9%

SMILES: CN1C[C@@H]2c3ccccc3Oc3ccc(Cl)cc3[C@H]2C1 (racemic) [Asenapine]
- remaining activity at 3.75 µM ([2]; Well no.=5151): 105%

SMILES: CCC1(c2ccc(N)cc2)CCC(=O)NC1=O (racemic) [DL-Aminoglutethimide]
- remaining activity at 1.25 µM ([1]; Well no.=2117): 99.9%

SMILES: O=C(CCN1CCN(C(=O)OCc2cc(Cl)cc(Cl)c2)CC1)c1ccc2[nH]c(=O)oc2c1 [3,5-dichlorobenzyl 4-[3-oxo-3-(2-oxo-2,3-dihydro-1,3-benzoxazol-6-yl)propyl]-1-piperazinecarboxylate]
- remaining activity at 3.75 µM ([2]; Well no.=5605): 105%

SMILES: CC(=O)[C@H]1CC[C@H]2[C@@H]3CC[C@H]4C[C@H](O)CC[C@]4(C)[C@H]3CC[C@]12C [5alpha-Pregnan-3alpha-ol-20-one]
- remaining activity at 1.25 µM ([1]; Well no.=1353): 104%

SMILES: Cc1noc(-c2ccc(-c3ccc(CC(=O)O)cc3)cc2)c1NC(=O)O[C@H](C)c1ccccc1 [AM095 (free acid)]
- remaining activity at 3.75 µM ([2]; Well no.=7853): 101%

SMILES: O=c1cc(-c2cccc3c2Sc2ccccc2S3)oc(N2CCOCC2)c1 [ATM Kinase Inhibitor]
- remaining activity at 3.75 µM ([2]; Well no.=2310): 104%

SMILES: CCCC(=O)Nc1ccc(OCC(O)CNC(C)C)c(C(C)=O)c1 (stereo not shown) [Acebutolol HCl]
- remaining activity at 3.75 µM ([2]; Well no.=5074): 103%

SMILES: C=CCc1ccccc1OCC(O)CNC(C)C (stereo not shown) [Alprenolol.HCl]
- remaining activity at 1.25 µM ([1]; Well no.=1686): 103%

SMILES: CC(NC(C)(C)C)C(=O)c1cccc(Cl)c1 (stereo not shown) [Amfebutamone]
- remaining activity at 1.25 µM ([1]; Well no.=1694): 98.7%

SMILES: CN1[C@@H]2CC[C@H]1C[C@@H](OC(=O)C(CO)c1ccccc1)C2 (stereo partly shown) [Atropine]
- remaining activity at 1.25 µM ([1]; Well no.=1552): 100%

SMILES: O=C1CC2(CCCC2)CC(=O)N1CCCCN1CCN(c2ncccn2)CC1 [Buspirone]
- remaining activity at 3.75 µM ([2]; Well no.=2179): 105%

SMILES: S=C(S)O[C@@H]1C[C@@H]2C[C@@H]1[C@H]1CCC[C@@H]21 [D609]
- remaining activity at 3.75 µM ([2]; Well no.=4133): 100%

SMILES: CC/C(=C(/CC)c1ccc(O)cc1)c1ccc(O)cc1 [Diethylstilbestrol]
- remaining activity at 3.75 µM ([2]; Well no.=1982): 98.4%

SMILES: Cc1cccc2c3c(ccc12)C1=C(C(=O)C3=O)C(C)CO1 (stereo not shown) [Dihydrotanshinone]
- remaining activity at 1.25 µM ([1]; Well no.=3569): 102%

SMILES: COc1ccc([C@@H]2Sc3ccccc3N(CCN(C)C)C(=O)[C@@H]2OC(C)=O)cc1 [Diltiazem hydrochloride]
- remaining activity at 3.75 µM ([2]; Well no.=399): 103%

SMILES: O=c1[nH]c2ccccc2n1CCN1CCN(c2cccc(C(F)(F)F)c2)CC1 [Flibanserin]
- remaining activity at 1.25 µM ([1]; Well no.=6855): 102%

SMILES: Cc1ccc(OC[C@H](O)[C@@H](C)NC(C)C)c2c1CCC2 [ICI 118,551 (hydrochloride)]
- remaining activity at 1.25 µM ([1]; Well no.=7035): 106%

SMILES: COc1ccc(Cl)cc1NC(=O)Nc1cc(C)nc2ccccc12 [IGF-1R Inhibitor II]
- remaining activity at 3.75 µM ([2]; Well no.=2451): 104%

SMILES: O=C(c1ccc(Nc2nccc(-c3cc4ccccc4s3)n2)cc1)N1CCC(N2CCCC2)CC1 [IKK Inhibitor VII]
- remaining activity at 1.25 µM ([1]; Well no.=2439): 103%

SMILES: CN(C)CCCN1c2ccccc2CCc2ccccc21 [Imipramine.HCl]
- remaining activity at 3.75 µM ([2]; Well no.=1688): 102%

SMILES: CC(C)[N+]1(C)[C@@H]2CC[C@H]1C[C@@H](OC(=O)C(CO)c1ccccc1)C2 (stereo partly shown) [Ipratropium (bromide)]
- remaining activity at 1.25 µM ([1]; Well no.=6175): 100%

SMILES: COc1cc2ncnc(Nc3ccc(F)c(Cl)c3)c2cc1OCCCN1CCOCC1 [Iressa - N-(3-chloro-4-fluoro-phenyl)-7-methoxy-6-(3-morpholin-4-ylpropoxy)quinazolin-4-amine]
- remaining activity at 1.25 µM ([1]; Well no.=2670): 97.6%

SMILES: CC(C(=O)O)c1cccc(C(=O)c2ccccc2)c1 (stereo not shown) [Ketoprofen]
- remaining activity at 3.75 µM ([2]; Well no.=973): 101%
- remaining activity at 3.75 µM ([2]; Well no.=1576): 98.4%

SMILES: C[N+](C)(C)[C@@H](Cc1c[nH]c(=S)[nH]1)C(=O)[O-] [L-Ergothioneine]
- remaining activity at 3.75 µM ([2]; Well no.=3891): 100%

SMILES: CC1(C)C(=O)N(CCN2CCC(C(=O)c3ccc(F)cc3)CC2)c2ccccc21 [LY-310,762 hydrochloride]
- remaining activity at 1.25 µM ([1]; Well no.=833): 99.6%

SMILES: CN1[C@@H](CC(=O)c2ccccc2)CCC[C@H]1C[C@H](O)c1ccccc1 [Lobeline]
- remaining activity at 3.75 µM ([2]; Well no.=1663): 103%

SMILES: CC[C@H](C)C(=O)O[C@H]1C[C@@H](C)C=C2C=C[C@H](C)[C@H](CC[C@@H]3C[C@@H](O)CC(=O)O3)[C@H]21 [Lovastatin]
- remaining activity at 1.25 µM ([1]; Well no.=1830): 99.3%

SMILES: COc1cc(Nc2ncc3c(n2)-c2ccc(Cl)cc2C(c2c(F)cccc2OC)=NC3)ccc1C(=O)O [MLN8237 (Alisertib)]
- remaining activity at 3.75 µM ([2]; Well no.=4675): 104%

SMILES: CN1C[C@@H](NS(=O)(=O)N(C)C)C[C@@H]2c3cccc4c3c(cn4C)C[C@H]21 [Mesulergine]
- remaining activity at 3.75 µM ([2]; Well no.=1692): 106%

SMILES: CC(C)(O)c1ccccc1CC[C@@H](SCC1(CC(=O)O)CC1)c1cccc(/C=C/c2ccc3ccc(Cl)cc3n2)c1 [Montelukast]
- remaining activity at 3.75 µM ([2]; Well no.=1615): 101%

SMILES: CN1CCN(C2Cc3ccccc3Sc3ccc(Cl)cc32)CC1 (stereo not shown) [Octoclothepin maleate salt]
- remaining activity at 3.75 µM ([2]; Well no.=5506): 108%

SMILES: CN(C)CC/C=C1/c2ccccc2COc2ccc(CC(=O)O)cc21 [Olopatadine]
- remaining activity at 3.75 µM ([2]; Well no.=1786): 103%

SMILES: Cc1nccn1CC1CCc2c(c3ccccc3n2C)C1=O (stereo not shown) [Ondansetron (hydrochloride dihydrate)]
- remaining activity at 3.75 µM ([2]; Well no.=7521): 105%

SMILES: Cc1cc(C(C)(C)C)c(O)c(C)c1CC1=NCCN1 [Oxymetazoline.HCl]
- remaining activity at 3.75 µM ([2]; Well no.=1683): 105%

SMILES: CCCCCCCCCCCCCCCC(=O)NCCO [Palmitoylethanolamide]
- remaining activity at 3.75 µM ([2]; Well no.=900): 106%

SMILES: O=C(Nc1cccc2c(=O)cc(-c3nnn[nH]3)oc12)c1ccc(OCCCCc2ccccc2)cc1 [Pranlukast (hemihydrate)]
- remaining activity at 3.75 µM ([2]; Well no.=6603): 102%

SMILES: COC(=O)[C@H]1[C@H]2C[C@H]3c4[nH]c5ccccc5c4CCN3C[C@H]2CC[C@@H]1O [Rauwolscine (hydrochloride)]
- remaining activity at 3.75 µM ([2]; Well no.=8155): 99.9%

SMILES: C1COC(NC(C2CC2)C2CC2)=N1 [Rilmenidine phosphate]
- remaining activity at 3.75 µM ([2]; Well no.=1695): 106%

SMILES: CNCC[C@H](Oc1ccc(C(F)(F)F)cc1)c1ccccc1 [S-(+)-Fluoxetine hydrochloride]
- remaining activity at 3.75 µM ([2]; Well no.=753): 99.7%

SMILES: Oc1cc2c(cc1O)C(c1ccccc1)CNCC2 (stereo not shown) [SKF 38393 (hydrochloride)]
- remaining activity at 3.75 µM ([2]; Well no.=7231): 97.8%

SMILES: O=C(CCCN1CCC2(CC1)C(=O)NCN2c1ccccc1)c1ccc(F)cc1 [Spiperone.HCl]
- remaining activity at 3.75 µM ([2]; Well no.=1648): 106%

SMILES: Cc1ccc(C(=O)Nc2ccc(S(=O)(=O)O)c3cc(S(=O)(=O)O)cc(S(=O)(=O)O)c23)cc1NC(=O)c1cccc(NC(=O)Nc2cccc(C(=O)Nc3cc(C(=O)Nc4ccc(S(=O)(=O)O)c5cc(S(=O)(=O)O)cc(S(=O)(=O)O)c45)ccc3C)c2)c1 [Suramin hexasodium]
- remaining activity at 3.75 µM ([2]; Well no.=1469): 102%

SMILES: Nc1c2c(nc3ccccc13)CCCC2 [Tacrine]
- remaining activity at 3.75 µM ([2]; Well no.=1675): 105%

SMILES: CN(C)CCCN1c2ccccc2Sc2ccc(C(F)(F)F)cc21 [Triflupromazine hydrochloride]
- remaining activity at 3.75 µM ([2]; Well no.=1285): 105%

SMILES: CCC(COC(=O)c1cc(OC)c(OC)c(OC)c1)(c1ccccc1)N(C)C (stereo not shown) [Trimebutine (maleate)]
- remaining activity at 3.75 µM ([2]; Well no.=6655): 107%

SMILES: Cc1cccc(C)c1NC1=NCCCS1 [Xylazine hydrochloride]
- remaining activity at 3.75 µM ([2]; Well no.=1388): 98.8%
